Experimental data reported in PubChem BioAssay (NCI).
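All cell lines were grown in 96-well plates and treated with compound for 48 hours. GI50 = concentration required for 50% inhibition of growth. TGI: total growth inhibition.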

Tests used:
Test in all cases: DTP human tumour cell line panel, 48 h
[1] = test system: NCI-H226 lung
[2] = test system: NCI-H23 lung
[3] = test system: NCI-H460 lung
[4] = test system: NCI-H522 lung
[5] = test system: OVCAR-3 ovarian
[6] = test system: OVCAR-4 ovarian
[7] = test system: OVCAR-5 ovarian
[8] = test system: OVCAR-8 ovarian
[9] = test system: PC-3 prostate
[10] = test system: RPMI-8226 leukemia
[11] = test system: RXF 393 renal
[12] = test system: SF-268 CNS
[13] = test system: SF-295 CNS
[14] = test system: SF-539 CNS
[15] = test system: SK-MEL-2 melanoma
[16] = test system: SK-MEL-28 melanoma
[17] = test system: SK-MEL-5 melanoma
[18] = test system: SK-OV-3 ovarian
[19] = test system: SN12C renal
[20] = test system: SNB-19 CNS
[21] = test system: SNB-75 CNS
[22] = test system: SR leukemia
[23] = test system: SW-620 colon
[24] = test system: T-47D breast
[25] = test system: TK-10 renal
[26] = test system: U251 CNS
[27] = test system: UACC-257 melanoma
[28] = test system: UACC-62 melanoma
[29] = test system: UO-31 renal

Compound `N#CC1=C(c2ccco2)Nc2c(c(-c3ccccc3)nn2-c2ccccc2)C12C(=O)Nc1ccc(Br)cc12` (configuration not stated) has a TGI [1] of 44.4 µM, a GI50 [2] of 21.5 µM and a TGI [2] of 47.7 µM. The GI50 [3] was 17.9 µM, the TGI [3] was 33.4 µM and the GI50 [4] was 20.4 µM. For the same compound, the TGI [4] was 48.4 µM, the GI50 [5] was 28.9 µM and the TGI [5] was 96.4 µM. For the same compound, the GI50 [6] was 19.2 µM, the TGI [6] was 40.7 µM and the GI50 [7] was 19.1 µM. It also gave a TGI [7] of 44.2 µM, a GI50 [8] of 18 µM and a TGI [8] of 33.1 µM. For the same compound, the GI50 [9] was 16.2 µM, the TGI [9] was 31.6 µM and the GI50 [10] was 35.9 µM. For the same compound, the TGI [10] was > 100 µM, the GI50 [11] was 17.3 µM and the TGI [11] was 34.5 µM. For the same compound, the GI50 [12] was 26.8 µM, the TGI [12] was 74 µM and the GI50 [13] was 19.6 µM. For the same compound, the TGI [13] was 50 µM, the GI50 [14] was 18.1 µM and the TGI [14] was 35.1 µM. It also gave a GI50 [15] of 18.1 µM, a TGI [15] of 36.7 µM and a GI50 [16] of 17.9 µM. For the same compound, the TGI [16] was 33.6 µM, the GI50 [17] was 18 µM and the TGI [17] was 32.6 µM. For the same compound, the GI50 [18] was 17.3 µM, the TGI [18] was 34.1 µM and the GI50 [19] was 18.3 µM. The TGI [19] was 35.6 µM, the GI50 [20] was 18.6 µM and the TGI [20] was 42.2 µM. The GI50 [21] was 16 µM, the TGI [21] was 38 µM and the GI50 [22] was 48.9 µM. For the same compound, the TGI [22] was > 100 µM, the GI50 [23] was 30 µM and the TGI [23] was 97.6 µM. For the same compound, the GI50 [24] was 30.4 µM, the TGI [24] was > 100 µM and the GI50 [25] was 17 µM. The TGI [25] was 33.5 µM, the GI50 [26] was 18 µM and the TGI [26] was 33.4 µM. The GI50 [27] was 20.5 µM, the TGI [27] was 50.6 µM and the GI50 [28] was 17.2 µM. The TGI [28] was 32.1 µM, the GI50 [29] was 28.1 µM and the TGI [29] was > 100 µM.
